Experimental data as given in patent US9957263B2, “Bromodomain inhibitors” (AbbVie Inc., priority 2013, dated 2018).

Legend:
[1] = target: BRD4 (BDI_K57-E168) (Homo sapiens (Human), UniProt O60885); assay: TR-FRET bromodomain binding assay, BRD4 first bromodomain; conditions: His-tagged BD1, Alexa647-labeled probe 100 nM
Procedure: (§1) A time-resolved fluorescence resonance energy transfer (TR-FRET) assay was used to determine the affinities of compounds of the Examples listed in Table 1 for each bromodomain of BRD4. His-tagged first (BD1: amino acids K57-E168) and second (BD2: amino acids E352-E168) bromodomains of BRD4 were expressed and purified. An Alexa647-labeled BET-inhibitor was used as the fluorescent probe in the assay.
(§2) Compound dilution series were prepared in DMSO via a 3-fold serial dilution from 2.5 mM to 42 nM. Compounds were then diluted 6:100 in assay buffer (20 mM Sodium Phosphate, pH 6.0, 50 mM NaCl, 1 mM Ethylenediaminetetraacetic acid disodium salt dihydrate, 0.01% Triton X-100, 1 mM DL-Dithiothreitol) to yield 3× working solutions. Six microliters (μL) of the working solution was then transferred to white, low-volume assay plates (Costar #3673). A 1.5× assay mixture containing His-tagged bromodomain, Europium-conjugated anti-His antibody (Invitrogen PV5596) and the Alexa-647-conjugated probe molecule was also prepared. Twelve μL of this solution were added to the assay plate to reach a final volume of 18 μL. The final concentration of 1× assay buffer contains 2% DMSO, 50 μM-0.85 nM compound, 8 nM His-tagged bromodomain, 1 nM Europium-conjugated anti-His-tag antibody and 100 nM or 30 nM probe (for BDI or BDII, respectively). After a one-hour incubation at room temperature, TR-FRET ratios were determined using an Envision multilabel plate reader (Ex 340, Em […]).
(§3) TR-FRET data were normalized to the means of 24 no-compound controls (“high”) and 8 controls containing 1 μM un-labeled probe (“low”). Percent inhibition was plotted as a function of compound concentration and the data were fit with the 4 parameter logistic equation to obtain IC50s. Inhibition constants (Ki) were calculated from the IC50s, probe Kd and probe concentration. Typical Z′ values were between 0.65 and 0.75. The minimum significant ratio was determined to evaluate assay reproducibility (Eastwood et al., (2006) J Biomol Screen, 11: 253-261). The MSR was determined to be 2.03 for BDI and 1.93 for BDII, and a moving MSR (last six run MSR overtime) for both BDI and BDII was typically <3.

[2] = target: BRD4 (BDII_E352-M457) (Homo sapiens (Human), UniProt O60885); assay: TR-FRET bromodomain binding assay, BRD4 second bromodomain; conditions: His-tagged BD2, Alexa647-labeled probe 30 nM
Procedure: as §1, §2, §3

| SMILES | Ki [1] [nM] | Ki [2] [nM] |
| --- | --- | --- |
| Cn1cc(-c2cc(S(C)(=O)=O)ccc2Oc2cccc(C(=O)N3CCN(C4CCCC4)CC3)c2)c2cc[nH]c2c1=O [Example 28, 4-[2-{3-[(4-cyclopentylpiperazin-1-yl)carbonyl]phenoxy}-5-(methylsulfonyl)phenyl]-6-methyl-1,6-dihydro-7H-pyrrolo[2,3-c]pyridin-7-one] | 13 | 11 |
| CN(C)CCN1CCN(C(=O)c2cccc(Oc3ccc(S(C)(=O)=O)cc3-c3cn(C)c(=O)c4[nH]ccc34)c2)CC1 [Example 29, 4-{2-[3-({4-[2-(dimethylamino)ethyl]piperazin-1-yl}carbonyl)phenoxy]-5-(methylsulfonyl)phenyl}-6-methyl-1,6-dihydro-7H-pyrrolo[2,3-c]pyridin-7-one] | 19 | 9.1 |
| Cn1cc(-c2cc(S(C)(=O)=O)ccc2Oc2cccc(C(=O)N3CCC(C(F)(F)F)CC3)c2)c2cc[nH]c2c1=O [Example 31, 6-methyl-4-[5-(methylsulfonyl)-2-(3-{[4-(trifluoromethyl)piperidin-1-yl]carbonyl}phenoxy)phenyl]-1,6-dihydro-7H-pyrrolo[2,3-c]pyridin-7-one] | 21 | 11 |
| CN(CC#N)C(=O)c1cccc(Oc2ccc(S(C)(=O)=O)cc2-c2cn(C)c(=O)c3[nH]ccc23)c1 [Example 32, N-(cyanomethyl)-N-methyl-3-[2-(6-methyl-7-oxo-6,7-dihydro-1H-pyrrolo[2,3-c]pyridin-4-yl)-4-(methylsulfonyl)phenoxy]benzamide] | 21 | 10 |
| CN(C)CCNC(=O)c1cccc(Oc2ccc(S(C)(=O)=O)cc2-c2cn(C)c(=O)c3[nH]ccc23)c1 [Example 33, N-[2-(dimethylamino)ethyl]-3-[2-(6-methyl-7-oxo-6,7-dihydro-1H-pyrrolo[2,3-c]pyridin-4-yl)-4-(methylsulfonyl)phenoxy]benzamide] | 8.1 | 3.1 |
| Cn1cc(-c2cc(S(C)(=O)=O)ccc2Oc2cccc(C(=O)NC[C@H]3CCCO3)c2)c2cc[nH]c2c1=O [Example 34, 3-[2-(6-methyl-7-oxo-6,7-dihydro-1H-pyrrolo[2,3-c]pyridin-4-yl)-4-(methylsulfonyl)phenoxy]-N-[(2R)-tetrahydrofuran-2-ylmethyl]benzamide] | 15 | 3.6 |
| Cn1cc(-c2cc(S(C)(=O)=O)ccc2Oc2cccc(C(=O)NCc3cc(F)cc(F)c3)c2)c2cc[nH]c2c1=O [Example 36, N-(3,5-difluorobenzyl)-3-[2-(6-methyl-7-oxo-6,7-dihydro-1H-pyrrolo[2,3-c]pyridin-4-yl)-4-(methylsulfonyl)phenoxy]benzamide] | 14 | 5.7 |
| Cn1cc(-c2cc(S(C)(=O)=O)ccc2Oc2cccc(C(=O)NCc3ccc(F)cc3F)c2)c2cc[nH]c2c1=O [Example 37, N-(2,4-difluorobenzyl)-3-[2-(6-methyl-7-oxo-6,7-dihydro-1H-pyrrolo[2,3-c]pyridin-4-yl)-4-(methylsulfonyl)phenoxy]benzamide] | 18 | 6 |
| Cn1cc(-c2cc(S(C)(=O)=O)ccc2Oc2cccc(NS(=O)(=O)Cc3ccccc3)c2)c2cc[nH]c2c1=O [Example 38, N-{3-[2-(6-methyl-7-oxo-6,7-dihydro-1H-pyrrolo[2,3-c]pyridin-4-yl)-4-(methylsulfonyl)phenoxy]phenyl}-1-phenylmethanesulfonamide] | 5.1 | 1.9 |
| COc1ccc(S(=O)(=O)Nc2cccc(Oc3ccc(S(C)(=O)=O)cc3-c3cn(C)c(=O)c4[nH]ccc34)c2)cc1 [Example 39, 4-methoxy-N-{3-[2-(6-methyl-7-oxo-6,7-dihydro-1H-pyrrolo[2,3-c]pyridin-4-yl)-4-(methylsulfonyl)phenoxy]phenyl}benzenesulfonamide] | 4.6 | 2.1 |
| Cn1cc(-c2cc(S(C)(=O)=O)ccc2Oc2cccc(NS(=O)(=O)c3cccc(F)c3)c2)c2cc[nH]c2c1=O [Example 40, 3-fluoro-N-{3-[2-(6-methyl-7-oxo-6,7-dihydro-1H-pyrrolo[2,3-c]pyridin-4-yl)-4-(methylsulfonyl)phenoxy]phenyl}benzenesulfonamide] | 5.4 | 2 |
| COc1cccc(S(=O)(=O)Nc2cccc(Oc3ccc(S(C)(=O)=O)cc3-c3cn(C)c(=O)c4[nH]ccc34)c2)c1 [Example 42, 3-methoxy-N-{3-[2-(6-methyl-7-oxo-6,7-dihydro-1H-pyrrolo[2,3-c]pyridin-4-yl)-4-(methylsulfonyl)phenoxy]phenyl}benzenesulfonamide] | 9.1 | 3.5 |
| CC(C)c1ccc(S(=O)(=O)Nc2cccc(Oc3ccc(S(C)(=O)=O)cc3-c3cn(C)c(=O)c4[nH]ccc34)c2)cc1 [Example 46, N-{3-[2-(6-methyl-7-oxo-6,7-dihydro-1H-pyrrolo[2,3-c]pyridin-4-yl)-4-(methylsulfonyl)phenoxy]phenyl}-4-(propan-2-yl)benzenesulfonamide] | 10 | 1.8 |
| Cn1cc(-c2cc(S(C)(=O)=O)ccc2Oc2cccc(NS(=O)(=O)c3ccc(F)cc3F)c2)c2cc[nH]c2c1=O [Example 47, 2,4-difluoro-N-{3-[2-(6-methyl-7-oxo-6,7-dihydro-1H-pyrrolo[2,3-c]pyridin-4-yl)-4-(methylsulfonyl)phenoxy]phenyl}benzenesulfonamide] | 5.9 | 2.7 |
| Cn1cc(-c2cc(S(C)(=O)=O)ccc2Oc2cccc(NS(=O)(=O)c3cccc(OC(F)F)c3)c2)c2cc[nH]c2c1=O [Example 48, 3-(difluoromethoxy)-N-{3-[2-(6-methyl-7-oxo-6,7-dihydro-1H-pyrrolo[2,3-c]pyridin-4-yl)-4-(methylsulfonyl)phenoxy]phenyl}benzenesulfonamide] | 7.8 | 2.4 |

Further compounds by falling Ki [1], results first:

| Ki [1] [nM] | Ki [2] [nM] | SMILES |
| --- | --- | --- |
| 28 | 17 | CC(=O)N1CCN(C(=O)c2cccc(Oc3ccc(S(C)(=O)=O)cc3-c3cn(C)c(=O)c4[nH]ccc34)c2)CC1 [Example 30, 4-[2-{3-[(4-acetylpiperazin-1-yl)carbonyl]phenoxy}-5-(methylsulfonyl)phenyl]-6-methyl-1,6-dihydro-7H-pyrrolo[2,3-c]pyridin-7-one] |
| 26 | 11 | Cn1cc(-c2cc(S(C)(=O)=O)ccc2Oc2cccc(C(=O)NCCCN3CCCC3=O)c2)c2cc[nH]c2c1=O [Example 27, 3-[2-(6-methyl-7-oxo-6,7-dihydro-1H-pyrrolo[2,3-c]pyridin-4-yl)-4-(methylsulfonyl)phenoxy]-N-[3-(2-oxopyrrolidin-1-yl)propyl]benzamide] |
| 16 | 3.3 | CN(C)c1cccc2c(S(=O)(=O)Nc3cccc(Oc4ccc(S(C)(=O)=O)cc4-c4cn(C)c(=O)c5[nH]ccc45)c3)cccc12 [Example 45, 5-(dimethylamino)-N-{3-[2-(6-methyl-7-oxo-6,7-dihydro-1H-pyrrolo[2,3-c]pyridin-4-yl)-4-(methylsulfonyl)phenoxy]phenyl}naphthalene-1-sulfonamide] |
| 11 | 5.1 | Cn1cc(-c2cc(S(C)(=O)=O)ccc2Oc2cccc(NS(=O)(=O)c3ccc(F)cc3)c2)c2cc[nH]c2c1=O [Example 41, 4-fluoro-N-{3-[2-(6-methyl-7-oxo-6,7-dihydro-1H-pyrrolo[2,3-c]pyridin-4-yl)-4-(methylsulfonyl)phenoxy]phenyl}benzenesulfonamide] |
| 5 | 3 | Cn1cc(-c2cc(S(C)(=O)=O)ccc2Oc2cccc(NS(=O)(=O)c3ccc([N+](=O)[O-])cc3)c2)c2cc[nH]c2c1=O [Example 43, N-{3-[2-(6-methyl-7-oxo-6,7-dihydro-1H-pyrrolo[2,3-c]pyridin-4-yl)-4-(methylsulfonyl)phenoxy]phenyl}-4-nitrobenzenesulfonamide] |
| 4.9 | 2.1 | CC(=O)c1ccc(S(=O)(=O)Nc2cccc(Oc3ccc(S(C)(=O)=O)cc3-c3cn(C)c(=O)c4[nH]ccc34)c2)cc1 [Example 44, 4-acetyl-N-{3-[2-(6-methyl-7-oxo-6,7-dihydro-1H-pyrrolo[2,3-c]pyridin-4-yl)-4-(methylsulfonyl)phenoxy]phenyl}benzenesulfonamide] |
| 3.1 | 1.9 | Cn1cc(-c2cc(S(C)(=O)=O)ccc2Oc2cccc(C(=O)NCCN3CCCC3)c2)c2cc[nH]c2c1=O [Example 35, 3-[2-(6-methyl-7-oxo-6,7-dihydro-1H-pyrrolo[2,3-c]pyridin-4-yl)-4-(methylsulfonyl)phenoxy]-N-[2-(pyrrolidin-1-yl)ethyl]benzamide] |
